Reference: US6719958B1, “Polychelants, their complexes with metal ions, their preparation and their uses” (Dibra S.p.A., priority 1996, dated 2004)

How the values were obtained:
[1] = Relaxivity measurement (Bruker Minispec 120, 0.5 T, 39° C.); type: physicochemical; conditions: on a per gadolinium basis
Experimental: For some Gd-containing products the relaxivity r1 was measured using a Bruker Minispec 120, at 0.5 T and 39° C.

[2] = according to the literature (Lauffer R. B. (1990) Magn. Reson. Quart. 2, 65-84); cited from earlier work

| Molecule | Relaxivity r1 ([1]; 0.5 T and 39° C.) [s⁻¹ mM⁻¹] | also measured |
| --- | --- | --- |
| O=C(O)CN1CCN(CC(=O)O)CCN(CC(=O)NCCCN(CCCC[C@H](NC(=O)OCc2ccccc2)C(=O)O)CCCNC(=O)CN2CCN(CC(=O)O)CCN(CC(=O)O)CCN(CC(=O)O)CC2)CCN(CC(=O)O)CC1 [Example 6, N^α-Carbobenzyloxy-N^ε,N^ε-bis-[4-aza-5-oxo-6-(1,4,7,10-tetraazacyclododecyl-4,7,10-triacetate)hexyl]-L-lysine] | – | Relaxivity r1 [1]: 8.35 s⁻¹ mM⁻¹ |
| O=C([O-])CN1CCN(CC(=O)[O-])CCN(CC(=O)O)CCN(CC(=O)[O-])CC1.[Gd+3] [Gd-DOTA] | – | r1 value [2]: 3.4 mM⁻¹ s⁻¹ |
| Gadolinium Complex of N^□,N^ε,N^ε(a)-Tris-[4-aza-5-oxo-6-(1,4,7,10-tetraazacyclododecol-4,7,10-triacetate)hexyl]-L-lysine [Example 4] | 5.25 | – |
| Gadolinium Complex of N^□,N^□,N^ε,N^ε-Tetrakis-[4-aza-5-oxo-6-(1,4,7,10-tetraazacyclododecyl-4,7,10-triacetate)hexyl]-L-lysine [Example 5] | 8.35 | – |
| Example 9: Conjugate of gadolinium complex compound (IVa) with horse heart myoglobin; Gd content 27.9 mol/mol protein (conjugate, UniProt P68082 2-154, looked up, gadolinium complex IVa conjugate, Conjugate of gadolinium complex compound (IVa) with horse heart myoglobin; Gd content 27.9 mol/mol protein) Myoglobin: GLSDGEWQQVLNVWGKVEADIAGHGQEVLIRLFTGHPETLEKFDKFKHLKTEAEMKASEDLKKHGTVVLTALGGILKKKGHHEAELKPLAQSHATKHKIPIKYLEFISDAIIHVLHSKHPGDFGADAQGAMTKALELFRNDIAAKYKELGFQG | 19 | – |
